Experimental data reported in patent US9339522B2, “Method for regulating blood glucose level” (SINPHAR PHARMACEUTICAL CO., LTD., priority 2013, dated 2016).

How the values were obtained:
[1] = tested on: mice having type I diabetes or type II diabetes induced by different medicaments; settings: mice with induced type I or type II diabetes; acteoside obtained from plantago; CN 102283854 A; cited from earlier work
[2] = tested on: human hepatocellular liver carcinoma cell line (HepG2); test: Carbohydrate consumption assay in HepG2 cells; assay type: cell-based
Description: A carbohydrate consumption assay was conducted by using human hepatocellular liver carcinoma cell line (HepG2, Bioresource Collection and Research Center, BCRC number: 60025). The cells were treated with 1000 μg/ml glucose, and then treated with 100 nM insulin, 50 μg/ml Cistanche tubulosa extract (CTE), 12.5 μg/ml of echinacoside, 1.25 μg/ml of acteoside, or 2.25 μg/ml of isoacteoside (i.e., an active component by an amount of what it presents in the extract). After 1 hour, the carbohydrate consumption level was determined. The results are shown in FIG. 10, wherein the data were shown as mean±standard deviation (n=3); ***P<0.001 (as compared to the control group).
To further confirm if the active components that are present in Cistanche tubulosa extract have the effect of accelerating liver cells to uptake blood sugar, a carbohydrate consumption assay as described above was conducted by using different concentrations of Cistanche tubulosa extract, echinacoside, acteoside and isoacteoside to treated the HepG2 cells. The results are shown in FIG. 11, wherein the data were shown as mean±standard deviation (n=3); **P<0.01; ***P<0.001 (as compared to the control group); #P<0.05 (as compared to the insulin group).

[3] = tested on: liver cells; settings: acteoside obtained from plantago, CN 102283854 A; cited from earlier work
[4] = tested on: induced diabetic rats; test: Determination of fasting plasma glucose concentration; assay type: in vivo, SD (Sprague-Dawley) rats; settings: DMR group: rosiglitazone 0.571 mg/kg body weight oral once daily 6 weeks; DM + 45% HFD rats; mean, n = 10
Description: (§1) 4-week-old male SD (Sprague-Dawley) rats were fed for one week, and then randomly divided into six groups (10 rats in each group), including five experimental groups and a control group. The rats in the experimental groups were intraperitoneally injected with 230 mg/kg body weight of nicotinamide, and then intraperitoneally injected with 65 mg/kg body weight of streptozocin to induced diabetes mellitus (the DM group). The control group was intraperitoneally injected with the same volume of a citrate buffer (pH 4.5). […] The rats in the control group and the DM group were administered with double distilled water once daily for 6 weeks. The body weight of the rats was measured weekly and the caloric intake was calculated.
(§2) After the above glucose tolerance test, the rats were sacrificed, and the blood samples were taken from the celiac artery. The blood samples were centrifuged at 3000 rpm, 4° C. for 15 minutes. The supernatant was collected, which is the plasma. Other tissue of the rats was also taken out and weighed, and then stored at −80° C. for the following biochemical data analysis.

[5] = tested on: induced diabetic rats; test: Liver and kidney function indicators in plasma (urea, creatinine, ALT, AST); assay type: in vivo, SD (Sprague-Dawley) rats; settings: DMR group: rosiglitazone 0.571 mg/kg body weight oral once daily 6 weeks, DM + 45% HFD rats, mean, n = 10
Description: as §1, §2
It has been known that diabetes mellitus may cause a lot of complications.

[6] = tested on: induced diabetic rats; test: Over-oxidation of plasma lipid (plasma malondialdehyde); assay type: in vivo, SD (Sprague-Dawley) rats; settings: DMR group: rosiglitazone 0.571 mg/kg body weight oral once daily 6 weeks, DM + 45% HFD rats, mean, n = 10
Description: as §1, §2

[7] = tested on: induced diabetic rats; test: Determination of total triglyceride concentration in plasma; assay type: in vivo, SD (Sprague-Dawley) rats; settings: DMR group: rosiglitazone 0.571 mg/kg body weight oral once daily 6 weeks, DM + 45% HFD rats, mean, n = 10
Description: as §1, §2

[8] = Weights of the liver, kidney, heart, and abdominal fat of the rats; assay type: in vivo, SD (Sprague-Dawley) rats; settings: DMR group: rosiglitazone 0.571 mg/kg body weight oral once daily 6 weeks; DM + 45% HFD rats; mean, n = 10
Description: (§3) 4-week-old male SD (Sprague-Dawley) rats were fed for one week, and then randomly divided into six groups (10 rats in each group), including five experimental groups and a control group. The rats in the experimental groups were intraperitoneally injected with 230 mg/kg body weight of nicotinamide, and then intraperitoneally injected with 65 mg/kg body weight of streptozocin to induced diabetes mellitus (the DM group). The control group was intraperitoneally injected with the same volume of a citrate buffer (pH 4.5). After a week, the fasting blood glucose of the induced diabetic rats in the experimental groups were measured, to confirmed the fasting blood glucose>[…]. The rats were then fed with a 45% high fat diet (HFD) for 6 weeks. Then, using the dosage shown in Table 1, the rats were orally administered with 0.571 mg/kg body weight of rosiglitazone (a medicine for regulating blood glucose levels, which is an insulin sensitizer) (DMR group) or 80 mg/kg body weight of Cistanche tubulosa extract (CTE) (DME1 group), 160 mg/kg body weight of CTE (DME2 group), or 320 mg/kg body weight of CTE (DME4 group), once daily for 6 weeks. The rats in the control group and the DM group were administered with double distilled water once daily for 6 weeks. The body weight of the rats was measured weekly and the caloric intake was calculated. The results are shown in FIG. 1 (body weight) and FIG. 2 (caloric intake).
In this experiment, the weights of the liver, kidney, heart, and abdominal fat of the rats treated with different conditions for 6 weeks were determined.

[9] = tested on: induced diabetic rats; test: Determination of plasma insulin concentration (ELISA); assay type: in vivo, SD (Sprague-Dawley) rats; settings: DMR group: rosiglitazone 0.571 mg/kg body weight oral once daily 6 weeks, DM + 45% HFD rats, mean, n = 10
Description: as §1, §2

[10] = Body weight and caloric intake of diabetic SD rats during 6 weeks treatment; assay type: in vivo, SD (Sprague-Dawley) rats; settings: FIG. 1; measured weekly; comparison between groups; rosiglitazone 0.571 mg/kg, CTE 80, 160, 320 mg/kg oral once daily 6 weeks
Description: as §3, with “The results are shown in FIG. 1 (body weight) and FIG. 2 (caloric intake).” left out

[11] = tested on: induced diabetic rats; test: Homeostasis model assessment equation of insulin resistance (HOMA-IR); assay type: in vivo, SD (Sprague-Dawley) rats; settings: DMR group: rosiglitazone 0.571 mg/kg body weight oral once daily 6 weeks; DM + 45% HFD rats; mean, n = 10
Description: 4-week-old male SD (Sprague-Dawley) rats were fed for one week, and then randomly divided into six groups (10 rats in each group), including five experimental groups and a control group. The rats in the experimental groups were intraperitoneally injected with 230 mg/kg body weight of nicotinamide, and then intraperitoneally injected with 65 mg/kg body weight of streptozocin to induced diabetes mellitus (the DM group). The control group was intraperitoneally injected with the same volume of a citrate buffer (pH 4.5). After a week, the fasting blood glucose of the induced diabetic rats in the experimental groups were measured, to confirmed the fasting blood glucose>[…]. The rats were then fed with a 45% high fat diet (HFD) for 6 weeks. […] The body weight of the rats was measured weekly and the caloric intake was calculated. […]
The homeostasis model assessment equation of insulin resistance (HOMA-IR) was calculated by the formula as follows: HOMA-IR=fasting plasma insulin concentration (mU/ml)×fasting plasma glucose concentration (mmole/L)÷22.5

[12] = tested on: induced diabetic rats; test: Determination of total cholesterol concentration in plasma; assay type: in vivo, SD (Sprague-Dawley) rats; settings: DMR group: rosiglitazone 0.571 mg/kg body weight oral once daily 6 weeks, DM + 45% HFD rats, mean, n = 10
Description: as §1, §2

[13] = tested on: induced diabetic rats; test: Determination of plasma leptin concentration (enzyme immunoassay); assay type: in vivo, SD (Sprague-Dawley) rats; settings: DMR group: rosiglitazone 0.571 mg/kg body weight oral once daily 6 weeks, DM + 45% HFD rats, mean, n = 10
Description: as §1, §2

[14] = tested on: induced diabetic rats; test: Plasma antioxidant enzymes (SOD, catalase, GPx); assay type: in vivo, SD (Sprague-Dawley) rats; settings: DMR group: rosiglitazone 0.571 mg/kg body weight oral once daily 6 weeks, DM + 45% HFD rats, mean, n = 10
Description: as §1, §2
It has been known that both Type I diabetes mellitus and Type II diabetes mellitus may cause the decreased expression of antioxidant enzymes in the body, and thus, increases oxidative stress. In this experiment, the concentrations of superoxide dismutase (SOD) catalase, and glutathione peroxidase (GPx) in the plasma of the rats were analyzed by an SOD detection kit, a catalase detection kit, and a GPx detection kit (Eugene-Chen CO., LTD, TW), respectively, to analyze the effect of CTE on the expression levels of antioxidant enzymes.

[15] = FIG. 11, 5 μg/ml and 50 μg/ml, HepG2, compared to the control group, dose dependence
[16] = FIG. 11, very low concentration, such as 5 μg/ml, HepG2

Question: Which results are given for `C[C@@H]1O[C@@H](O[C@@H]2[C@@H](O)[C@H](OCCc3ccc(O)c(O)c3)O[C@H](CO)[C@H]2OC(=O)/C=C/c2ccc(O)c(O)c2)[C@H](O)[C@H](O)[C@H]1O` [acteoside]?
Answer: Fasting blood glucose level [1]: decrease; Serum insulin level [1]: enhancing; Carbohydrate consumption level ([2]; FIG. 10, 1.25 μg/ml, HepG2, 1000 μg/ml glucose, after 1 hour, compared to the control group): not obvious; Carbohydrate consumption level [2, 15]: effectively increase; Consumption of glucose [3]: effective in promoting the consumption of glucose

Question: For `C[C@@H]1O[C@@H](O[C@@H]2[C@@H](O)[C@H](OCCc3ccc(O)c(O)c3)O[C@H](COC(=O)/C=C/c3ccc(O)c(O)c3)[C@H]2O)[C@H](O)[C@H](O)[C@H]1O` [isoacteoside], which Carbohydrate consumption level ([2]; FIG. 10, 2.25 μg/ml, HepG2, 1000 μg/ml glucose, after 1 hour, compared to the control group) is on record?
Answer: effectively increase

Question: And the Carbohydrate consumption level [2, 15]?
Answer: effectively increase

Question: And the Carbohydrate consumption level [2, 16]?
Answer: increase

Question: With `C[C@@H]1O[C@@H](O[C@@H]2[C@@H](O)[C@H](OCCc3ccc(O)c(O)c3)O[C@H](CO[C@@H]3O[C@H](CO)[C@@H](O)[C@H](O)[C@H]3O)[C@H]2OC(=O)/C=C/c2ccc(O)c(O)c2)[C@H](O)[C@H](O)[C@H]1O` [echinacoside] as the molecule, how does the Carbohydrate consumption level ([2]; FIG. 10, 12.5 μg/ml, HepG2, 1000 μg/ml glucose, after 1 hour, compared to the control group) read?
Answer: effectively increase

Question: And the Carbohydrate consumption level [2, 15]?
Answer: effectively increase

Question: What about the Carbohydrate consumption level [2, 16] of the same molecule?
Answer: increase

Question: Which Fasting blood glucose [4] does the source give for `CN(CCOc1ccc(CC2SC(=O)NC2=O)cc1)c1ccccn1` (stereo not shown) [rosiglitazone] here?
Answer: 134.37 mg/dL

Question: And the ALT [5]?
Answer: 29.88 U/L

Question: What about the AST [5] of the same molecule?
Answer: 38.24 U/L

Question: What about the AST/ALT [5] of the same molecule?
Answer: 1.34

Question: What about the Creatinine [5] of the same molecule?
Answer: 1.19 mg/dL

Question: What about the Urea [5] of the same molecule?
Answer: 19.14 mg/dL

Question: And the Malondialdehyde [6]?
Answer: 13.38 nM/ml

Question: And the The total triglyceride [7]?
Answer: 62.77 mg/dL

Question: And the “Abdominal fat weight, percentage compared to body weight” value [8]?
Answer: 2.49%

Question: And the “Heart weight, percentage compared to body weight” value [8]?
Answer: 0.34%

Question: What about the “Kidney weight, percentage compared to body weight” value [8] of the same molecule?
Answer: 0.34%

Question: What about the “Liver weight, percentage compared to body weight” value [8] of the same molecule?
Answer: 3.21%

Question: What about the Insulin [9] of the same molecule?
Answer: 3.57 ng/mL

Question: What about the Body weight [10] of the same molecule?
Answer: no significant difference

Question: What about the HOMA-IR [11] of the same molecule?
Answer: 2.37 μg · mmole/L^2

Question: And the Total cholesterol [12]?
Answer: 106.90 mg/dL

Question: And the Leptin [13]?
Answer: 6.38 ng/mL

Question: What about the Catalase [14] of the same molecule?
Answer: 60.05 U/mg protein

Question: And the Glutathione peroxidase [14]?
Answer: 811.08 U/mg protein

Question: And the Superoxide dismutase [14]?
Answer: 0.65 U/mg protein
